What was measured:
Test in all cases: KAM-matrix competition in K562 lysate;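 for 0.001 uM KAM: median log10 fold change of treatment over DMSO control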;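 for 0.01 uM KAM: median log10 fold change of treatment over DMSO control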;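 for 0.1 uM KAM: median log10 fold change of treatment over DMSO control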;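 for 1 uM KAM: median log10 fold change of treatment over DMSO control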;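 for 10 uM KAM: median log10 fold change of treatment over DMSO control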
Type in all cases: binding
[1] = target: T1, STK10 (Homo sapiens, UniProt O94804)
T1 construct: endogenous in cells; host or cells: K562 cell lysate
Experimental: (§1) Supplement 12953_2017_125_MOESM1_ESM.zip/MS_Supp Info.xlsx, sheet "KAM" | column: 10 uM KAM; 1 uM KAM; 0.1 uM KAM; 0.01 uM KAM; 0.001 uM KAM; RB50

[2] = target: T2, HIPK1 (Homo sapiens, UniProt Q86Z02)
T2 construct: endogenous in cells; host or cells: K562
Experimental: as §1

[3] = target: T3, BAZ1B (Homo sapiens, UniProt Q9UIG0);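 for 0.001 uM KAM: median log10 fold change of treatment over DMSO control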;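 for 0.01 uM KAM: median log10 fold change of treatment over DMSO control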;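 for 0.1 uM KAM: median log10 fold change of treatment over DMSO control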;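 for 1 uM KAM: median log10 fold change of treatment over DMSO control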;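 for 10 uM KAM: median log10 fold change of treatment over DMSO control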
T3 construct: endogenous in cells; host or cells: K562
T3 sequence (Q9UIG0 1-1483): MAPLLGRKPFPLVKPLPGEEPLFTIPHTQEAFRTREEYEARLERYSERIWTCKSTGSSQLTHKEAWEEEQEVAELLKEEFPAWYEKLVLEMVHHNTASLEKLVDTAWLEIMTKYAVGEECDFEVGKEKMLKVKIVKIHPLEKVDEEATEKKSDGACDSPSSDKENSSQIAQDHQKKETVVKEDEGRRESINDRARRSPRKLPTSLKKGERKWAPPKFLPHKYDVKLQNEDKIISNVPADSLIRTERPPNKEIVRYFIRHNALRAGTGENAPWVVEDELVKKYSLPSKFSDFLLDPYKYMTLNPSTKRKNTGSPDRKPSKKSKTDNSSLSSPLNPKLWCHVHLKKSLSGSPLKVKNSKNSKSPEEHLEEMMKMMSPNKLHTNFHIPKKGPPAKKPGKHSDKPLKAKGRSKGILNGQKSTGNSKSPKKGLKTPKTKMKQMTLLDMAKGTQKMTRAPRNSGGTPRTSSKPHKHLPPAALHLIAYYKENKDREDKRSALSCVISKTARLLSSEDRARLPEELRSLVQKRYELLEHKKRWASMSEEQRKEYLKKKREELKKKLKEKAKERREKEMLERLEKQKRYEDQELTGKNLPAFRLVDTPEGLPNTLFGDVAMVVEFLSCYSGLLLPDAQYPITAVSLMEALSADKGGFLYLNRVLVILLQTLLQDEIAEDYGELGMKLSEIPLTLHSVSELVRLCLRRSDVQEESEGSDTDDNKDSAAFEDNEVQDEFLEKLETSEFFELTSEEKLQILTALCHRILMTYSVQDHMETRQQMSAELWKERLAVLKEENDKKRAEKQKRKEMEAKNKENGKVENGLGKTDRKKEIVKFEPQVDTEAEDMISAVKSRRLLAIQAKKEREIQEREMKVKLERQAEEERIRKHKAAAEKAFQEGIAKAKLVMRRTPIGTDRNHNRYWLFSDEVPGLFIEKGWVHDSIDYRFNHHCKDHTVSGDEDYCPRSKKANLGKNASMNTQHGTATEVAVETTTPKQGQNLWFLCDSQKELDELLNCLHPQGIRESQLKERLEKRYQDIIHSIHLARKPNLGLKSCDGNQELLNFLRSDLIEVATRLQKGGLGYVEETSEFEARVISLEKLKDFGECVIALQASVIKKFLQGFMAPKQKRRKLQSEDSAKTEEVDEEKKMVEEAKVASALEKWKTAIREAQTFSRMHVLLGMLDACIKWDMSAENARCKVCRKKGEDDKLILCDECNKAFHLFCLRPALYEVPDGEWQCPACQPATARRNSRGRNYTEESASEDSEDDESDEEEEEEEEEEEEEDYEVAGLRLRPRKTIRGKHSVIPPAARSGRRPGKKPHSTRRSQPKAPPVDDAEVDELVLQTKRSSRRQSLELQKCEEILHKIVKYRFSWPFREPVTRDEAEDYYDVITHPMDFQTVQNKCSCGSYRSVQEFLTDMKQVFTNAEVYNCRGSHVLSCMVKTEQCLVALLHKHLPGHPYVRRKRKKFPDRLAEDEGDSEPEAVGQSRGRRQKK
Experimental: as §1

[4] = target: T4, CDC7 (Homo sapiens, UniProt O00311);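 for 0.001 uM KAM: median log10 fold change of treatment over DMSO control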;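 for 0.01 uM KAM: median log10 fold change of treatment over DMSO control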;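 for 0.1 uM KAM: median log10 fold change of treatment over DMSO control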;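 for 1 uM KAM: median log10 fold change of treatment over DMSO control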;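 for 10 uM KAM: median log10 fold change of treatment over DMSO control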
T4 construct: endogenous in cells; host or cells: K562 lysate
Experimental: as §1

[5] = target: T5, HIPK2 (Homo sapiens, UniProt Q9H2X6)
T5 construct: endogenous in cells; host or cells: K562 cell lysate
Experimental: as §1

[6] = target: T6, MAP3K9 (Homo sapiens, UniProt P80192)
T6 construct: endogenous in cells; host or cells: K562
Experimental: as §1

[7] = read-out: RB50 (the source's name)
[8] = KAM 0.001-10 uM, read-out: RB50 (the source's name)

For `N#CCc1ccc(Nc2nc(NCCCN)cc(Nc3cc(C4CC4)[nH]n3)n2)cc1` [KAM], the “median Log10 fold change” value ([1]; 0.001 uM KAM) was -0.02902, the “median Log10 fold change” value ([1]; 0.01 uM KAM) was -0.03253 and the “median Log10 fold change” value ([1]; 0.1 uM KAM) was -0.2078. The “median Log10 fold change” value ([1]; 1 uM KAM) was -0.4135, the “median Log10 fold change” value ([1]; 10 uM KAM) was -0.5057 and the IC50 [1, 7] was 404 nM. The “median Log10 fold change” value ([2]; 0.001 uM KAM) was 0.007007, the “median Log10 fold change” value ([2]; 0.01 uM KAM) was -0.007344 and the “median Log10 fold change” value ([2]; 0.1 uM KAM) was -0.151. The “median Log10 fold change” value ([2]; 1 uM KAM) was -0.3582, the “median Log10 fold change” value ([2]; 10 uM KAM) was -0.4749 and the IC50 [2, 7] was 770 nM. For the same molecule, the IC50 [3, 8] was > 10000 nM, the “0.001 uM KAM” value ([3]; relative to 0 uM KAM = 0) was -0.04632 and the “0.01 uM KAM” value ([3]; relative to 0 uM KAM = 0) was -0.04267. For the same molecule, the “0.1 uM KAM” value ([3]; relative to 0 uM KAM = 0) was -0.03143, the “1 uM KAM” value ([3]; relative to 0 uM KAM = 0) was -0.000154 and the “10 uM KAM” value ([3]; relative to 0 uM KAM = 0) was -0.05532. The IC50 [4, 8] was > 10000 nM, the “0.001 uM KAM” value ([4]; relative to 0 uM KAM = 0) was -0.007298 and the “0.01 uM KAM” value ([4]; relative to 0 uM KAM = 0) was -0.03198. For the same molecule, the “0.1 uM KAM” value ([4]; relative to 0 uM KAM = 0) was -0.1182, the “1 uM KAM” value ([4]; relative to 0 uM KAM = 0) was -0.2032 and the “10 uM KAM” value ([4]; relative to 0 uM KAM = 0) was -0.1853. For the same molecule, the “median Log10 fold change” value ([5]; 0.001 uM KAM) was -0.003211, the “median Log10 fold change” value ([5]; 0.01 uM KAM) was 0.02239 and the “median Log10 fold change” value ([5]; 0.1 uM KAM) was -0.07372. For the same molecule, the “median Log10 fold change” value ([5]; 1 uM KAM) was -0.2033, the “median Log10 fold change” value ([5]; 10 uM KAM) was -0.3492 and the IC50 [5, 7] was 4260 nM. For the same molecule, the “median Log10 fold change” value ([6]; 0.001 uM KAM) was -0.03702, the “median Log10 fold change” value ([6]; 0.01 uM KAM) was 0.03625 and the “median Log10 fold change” value ([6]; 0.1 uM KAM) was -0.05744. The “median Log10 fold change” value ([6]; 1 uM KAM) was -0.2576, the “median Log10 fold change” value ([6]; 10 uM KAM) was -0.4734 and the IC50 [6, 7] was 1800 nM.

From PMC5513037, “Examining the influence of specificity ligands and ATP-competitive ligands on the overall effectiveness of bivalent kinase inhibitors” (Proteome Science, 2017)
